Where two headings read alike, the source gives them in different places.
Assays:
[1] = target: Nav 1.7 (Homo sapiens (Human), UniProt Q15858); assay: Inhibition of sodium channels, Red Membrane Potential Dye FLIPR assay, veratridine depolarization; format: cell-based; details: HEK-293 cells overexpressing the channel
[2] = target: Nav 1.5 (Homo sapiens (Human), UniProt Q14524); assay: as above; format: cell-based; details: HEK-293 cells overexpressing the channel
[3] = read-out: Nav1.5 IC50 (bound given in μM)

Chain of Nav 1.5 (Q14524 whole entry): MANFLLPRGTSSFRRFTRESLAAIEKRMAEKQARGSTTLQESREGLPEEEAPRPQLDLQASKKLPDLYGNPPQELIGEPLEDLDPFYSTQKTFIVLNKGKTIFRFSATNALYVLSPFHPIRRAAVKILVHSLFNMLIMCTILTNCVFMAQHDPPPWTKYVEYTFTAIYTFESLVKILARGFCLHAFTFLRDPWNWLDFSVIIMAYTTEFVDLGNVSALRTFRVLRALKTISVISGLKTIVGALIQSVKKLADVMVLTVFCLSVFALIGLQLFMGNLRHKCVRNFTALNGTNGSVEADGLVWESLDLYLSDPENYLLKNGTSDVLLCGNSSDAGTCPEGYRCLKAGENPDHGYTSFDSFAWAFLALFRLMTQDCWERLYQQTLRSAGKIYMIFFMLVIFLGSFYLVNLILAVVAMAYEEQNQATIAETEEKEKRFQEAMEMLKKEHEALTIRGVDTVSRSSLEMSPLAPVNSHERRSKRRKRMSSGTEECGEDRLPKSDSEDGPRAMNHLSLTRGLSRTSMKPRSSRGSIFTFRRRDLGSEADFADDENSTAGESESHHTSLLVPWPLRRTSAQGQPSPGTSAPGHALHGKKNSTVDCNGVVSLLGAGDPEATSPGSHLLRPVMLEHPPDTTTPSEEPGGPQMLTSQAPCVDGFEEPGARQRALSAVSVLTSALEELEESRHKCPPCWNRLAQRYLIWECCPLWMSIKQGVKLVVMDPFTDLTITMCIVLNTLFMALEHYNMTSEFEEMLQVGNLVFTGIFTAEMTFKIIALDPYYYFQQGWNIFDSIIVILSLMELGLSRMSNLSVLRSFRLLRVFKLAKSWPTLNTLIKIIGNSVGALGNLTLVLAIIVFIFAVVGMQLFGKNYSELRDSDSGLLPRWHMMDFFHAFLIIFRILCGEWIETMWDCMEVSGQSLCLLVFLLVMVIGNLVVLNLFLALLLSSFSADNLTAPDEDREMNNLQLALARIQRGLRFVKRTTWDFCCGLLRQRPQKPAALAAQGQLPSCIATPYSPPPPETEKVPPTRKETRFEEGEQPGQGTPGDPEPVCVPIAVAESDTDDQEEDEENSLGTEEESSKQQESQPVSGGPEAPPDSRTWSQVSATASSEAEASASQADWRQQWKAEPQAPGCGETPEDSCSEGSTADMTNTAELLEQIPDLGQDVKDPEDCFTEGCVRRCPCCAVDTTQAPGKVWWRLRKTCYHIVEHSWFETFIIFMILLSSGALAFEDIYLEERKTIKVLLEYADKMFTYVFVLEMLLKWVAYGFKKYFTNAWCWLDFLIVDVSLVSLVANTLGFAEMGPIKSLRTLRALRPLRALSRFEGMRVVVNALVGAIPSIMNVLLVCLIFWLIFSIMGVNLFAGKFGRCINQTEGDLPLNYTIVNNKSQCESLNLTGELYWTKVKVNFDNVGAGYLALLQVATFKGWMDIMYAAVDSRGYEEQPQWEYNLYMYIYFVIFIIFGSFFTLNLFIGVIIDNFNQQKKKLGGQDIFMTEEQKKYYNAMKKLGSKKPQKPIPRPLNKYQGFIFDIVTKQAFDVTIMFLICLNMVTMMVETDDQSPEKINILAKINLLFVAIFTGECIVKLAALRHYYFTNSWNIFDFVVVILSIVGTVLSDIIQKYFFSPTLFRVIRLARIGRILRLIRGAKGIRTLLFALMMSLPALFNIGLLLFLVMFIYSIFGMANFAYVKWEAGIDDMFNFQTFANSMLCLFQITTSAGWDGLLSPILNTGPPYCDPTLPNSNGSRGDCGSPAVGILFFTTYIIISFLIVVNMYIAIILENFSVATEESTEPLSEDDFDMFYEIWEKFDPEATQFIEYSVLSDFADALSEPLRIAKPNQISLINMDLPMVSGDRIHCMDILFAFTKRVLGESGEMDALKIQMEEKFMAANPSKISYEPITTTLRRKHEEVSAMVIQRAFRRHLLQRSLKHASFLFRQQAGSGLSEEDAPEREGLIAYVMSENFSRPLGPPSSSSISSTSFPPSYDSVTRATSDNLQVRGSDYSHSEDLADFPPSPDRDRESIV
Chain of Nav 1.7 (Q15858 whole entry): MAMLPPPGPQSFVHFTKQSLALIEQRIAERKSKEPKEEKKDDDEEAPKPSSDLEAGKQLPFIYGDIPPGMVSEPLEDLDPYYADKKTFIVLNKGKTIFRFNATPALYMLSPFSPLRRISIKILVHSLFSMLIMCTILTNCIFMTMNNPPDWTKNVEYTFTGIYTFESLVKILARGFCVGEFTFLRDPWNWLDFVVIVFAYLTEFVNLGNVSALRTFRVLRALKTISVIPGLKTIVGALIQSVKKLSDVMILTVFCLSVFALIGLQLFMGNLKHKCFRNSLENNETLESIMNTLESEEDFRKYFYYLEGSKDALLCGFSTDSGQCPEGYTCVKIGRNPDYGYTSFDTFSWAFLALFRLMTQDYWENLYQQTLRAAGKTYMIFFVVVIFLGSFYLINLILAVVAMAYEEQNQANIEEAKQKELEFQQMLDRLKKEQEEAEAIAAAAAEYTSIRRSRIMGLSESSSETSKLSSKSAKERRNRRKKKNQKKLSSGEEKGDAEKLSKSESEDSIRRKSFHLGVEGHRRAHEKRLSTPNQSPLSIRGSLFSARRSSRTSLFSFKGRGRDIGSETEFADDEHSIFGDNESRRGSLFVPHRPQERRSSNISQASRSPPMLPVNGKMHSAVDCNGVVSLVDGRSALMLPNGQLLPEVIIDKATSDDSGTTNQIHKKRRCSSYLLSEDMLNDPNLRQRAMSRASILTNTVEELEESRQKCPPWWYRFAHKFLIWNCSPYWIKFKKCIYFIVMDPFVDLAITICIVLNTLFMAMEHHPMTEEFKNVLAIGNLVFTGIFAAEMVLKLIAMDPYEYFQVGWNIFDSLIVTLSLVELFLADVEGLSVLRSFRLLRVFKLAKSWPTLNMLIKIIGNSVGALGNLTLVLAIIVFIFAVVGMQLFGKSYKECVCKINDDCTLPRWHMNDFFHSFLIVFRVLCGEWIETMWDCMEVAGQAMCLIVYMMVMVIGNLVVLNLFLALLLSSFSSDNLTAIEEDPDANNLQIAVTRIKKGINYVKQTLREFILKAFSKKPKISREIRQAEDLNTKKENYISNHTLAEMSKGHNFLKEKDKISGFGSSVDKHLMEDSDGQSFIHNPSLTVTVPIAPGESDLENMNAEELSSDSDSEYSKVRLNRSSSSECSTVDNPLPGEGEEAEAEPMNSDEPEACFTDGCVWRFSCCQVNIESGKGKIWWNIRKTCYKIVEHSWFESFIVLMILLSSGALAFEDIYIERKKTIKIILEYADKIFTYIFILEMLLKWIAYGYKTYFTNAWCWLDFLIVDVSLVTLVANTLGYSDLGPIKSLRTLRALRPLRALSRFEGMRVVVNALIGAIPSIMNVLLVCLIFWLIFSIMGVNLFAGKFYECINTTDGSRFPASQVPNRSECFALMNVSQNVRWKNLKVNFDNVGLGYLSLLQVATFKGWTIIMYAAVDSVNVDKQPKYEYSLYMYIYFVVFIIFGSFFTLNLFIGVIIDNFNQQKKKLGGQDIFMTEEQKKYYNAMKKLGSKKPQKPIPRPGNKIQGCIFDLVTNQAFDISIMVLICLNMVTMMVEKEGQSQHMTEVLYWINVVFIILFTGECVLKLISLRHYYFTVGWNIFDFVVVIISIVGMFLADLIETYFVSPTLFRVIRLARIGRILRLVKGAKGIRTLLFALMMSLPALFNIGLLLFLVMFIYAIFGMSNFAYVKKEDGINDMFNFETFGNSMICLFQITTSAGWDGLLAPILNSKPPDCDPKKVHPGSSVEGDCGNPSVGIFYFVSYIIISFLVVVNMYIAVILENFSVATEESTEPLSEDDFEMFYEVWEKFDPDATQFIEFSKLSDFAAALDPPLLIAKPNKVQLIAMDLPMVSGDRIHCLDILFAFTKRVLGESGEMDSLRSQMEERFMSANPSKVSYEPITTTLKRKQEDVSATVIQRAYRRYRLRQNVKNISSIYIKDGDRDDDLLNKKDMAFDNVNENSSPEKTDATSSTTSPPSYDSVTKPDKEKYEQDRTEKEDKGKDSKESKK

Compound | IC50 ([1]; read-out: Nav1.7 IC50) | IC50 [2, 3] | Nav1.5 % inhibition @ 10 μM [2] | further results
O=S(=O)(Nc1ncccn1)c1ccc2c(c1)OCC[C@H]2c1ccc(C(F)(F)F)cc1OC1COC1 [Example-216, (R&S)-4-(2-(oxetan-3-yloxy)-4-(trifluoromethyl)phenyl)-N-(pyrimidin-2-yl)chroman-7-sulfonamide] | 2.73 µM | > 10 µM |  | 
O=S(=O)(Nc1ncccn1)c1ccc2c(c1)OCC[C@@H]2c1ccc(C(F)(F)F)cc1OC1COC1 [Example-217, (R&S)-4-(2-(oxetan-3-yloxy)-4-(trifluoromethyl)phenyl)-N-(pyrimidin-2-yl)chroman-7-sulfonamide] | 0.152 µM |  | 50% | 
O=S(=O)(Nc1ncccn1)c1ccc2c(c1)OCC[C@H]2c1ccc(C(F)(F)F)cc1OCCCF [Example-220, (S&R)-4-(2-(3-fluoropropoxy)-4-(trifluoromethyl)phenyl)-N-(pyrimidin-2-yl)chroman-7-sulfonamide] |  | > 10 µM |  | IC50 ([1]; read-out: Nav1.7 IC50 (bound given in μM)): > 10 µM
O=S(=O)(Nc1ncccn1)c1ccc2c(c1)OCC[C@@H]2c1ccc(C(F)(F)F)cc1OCCCF [Example-221, (S&R)-4-(2-(3-fluoropropoxy)-4-(trifluoromethyl)phenyl)-N-(pyrimidin-2-yl)chroman-7-sulfonamide] | 0.042 µM |  |  | IC50 ([2]; read-out: Nav1.5 IC50): 1.47 µM
COc1cc(C(F)(F)F)ccc1[C@@H]1CCOc2cc(S(=O)(=O)Nc3ncccn3)ccc21 [Example-226, (S&R)-4-(2-methoxy-4-(trifluoromethyl)phenyl)-N-(pyrimidin-2-yl)chroman-7-sulfonamide] | 2.35 µM |  | 86% | 
COc1cc(C(F)(F)F)ccc1[C@H]1CCOc2cc(S(=O)(=O)Nc3ncccn3)ccc21 [Example-227, (S&R)-4-(2-methoxy-4-(trifluoromethyl)phenyl)-N-(pyrimidin-2-yl)chroman-7-sulfonamide] | 0.177 µM | > 10 µM |  | 
COc1cc(C(F)(F)F)ccc1[C@@H]1CCOc2cc(S(=O)(=O)Nc3cccc(F)n3)ccc21 [Example-228, (S&R)—N-(6-fluoropyridin-2-yl)-4-(2-methoxy-4-(trifluoromethyl)phenyl)chroman-7-sulfonamide] |  | > 10 µM |  | Nav1.7 inhibition @ 10 μM [1]: 55%
COc1cc(C(F)(F)F)ccc1[C@H]1CCOc2cc(S(=O)(=O)Nc3cccc(F)n3)ccc21 [Example-229, (S&R)—N-(6-fluoropyridin-2-yl)-4-(2-methoxy-4-(trifluoromethyl)phenyl)chroman-7-sulfonamide] | 0.156 µM |  | 42% | 
O=C1COCCN1c1cc(C(F)(F)F)ccc1[C@@H]1CCOc2cc(S(=O)(=O)Nc3ncccn3)ccc21 [Example-230, (S&R)-4-(2-(3-oxomorpholino)-4-(trifluoromethyl)phenyl)-N-(pyrimidin-2-yl)chroman-7-sulfonamide] | 4.42 µM | > 10 µM |  | 
O=C1COCCN1c1cc(C(F)(F)F)ccc1[C@H]1CCOc2cc(S(=O)(=O)Nc3ncccn3)ccc21 [Example-231, (S&R)-4-(2-(3-oxomorpholino)-4-(trifluoromethyl)phenyl)-N-(pyrimidin-2-yl)chroman-7-sulfonamide] | 0.559 µM | > 10 µM |  | 
O=S1(=O)CCN(c2cc(C(F)(F)F)ccc2[C@@H]2CCOc3cc(S(=O)(=O)Nc4ncccn4)ccc32)CC1 [Example-232, (S&R)-4-(2-(1,1-dioxidothiomorpholino)-4-(trifluoromethyl)phenyl)-N-(pyrimidin-2-yl)chroman-7-sulfonamide] |  | > 10 µM |  | Nav1.7 inhibition @ 10 μM [1]: 36%
CCCc1cc(C(F)(F)F)ccc1[C@@H]1CCOc2cc(S(=O)(=O)Nc3ncccn3)ccc21 [Example-238, (S&R)-4-(2-propyl-4-(trifluoromethyl)phenyl)-N-(pyrimidin-2-yl)chroman-7-sulfonamide] | 1.76 µM | > 10 µM |  | 
CCCc1cc(C(F)(F)F)ccc1[C@H]1CCOc2cc(S(=O)(=O)Nc3ncccn3)ccc21 [Example-239, (S&R)-4-(2-propyl-4-(trifluoromethyl)phenyl)-N-(pyrimidin-2-yl)chroman-7-sulfonamide] | 0.124 µM |  | 62% | 
CCCc1cc(C(F)(F)F)ccc1[C@@H]1CCOc2cc(S(=O)(=O)Nc3ncc(F)cn3)ccc21 [Example-240, (S&R)—N-(5-fluoropyrimidin-2-yl)-4-(2-propyl-4-(trifluoromethyl)phenyl)chroman-7-sulfonamide] | 2.74 µM | > 10 µM |  | 
CCCc1cc(C(F)(F)F)ccc1[C@H]1CCOc2cc(S(=O)(=O)Nc3ncc(F)cn3)ccc21 [Example-241, (S&R)—N-(5-fluoropyrimidin-2-yl)-4-(2-propyl-4-(trifluoromethyl)phenyl)chroman-7-sulfonamide] | 0.172 µM | > 10 µM |  | 
CCCc1cc(C(F)(F)F)ccc1C1CCOc2cc(S(=O)(=O)Nc3cccnn3)ccc21 (stereo not shown) [Example-242] | 1.05 µM |  |  | IC50 ([2]; read-out: Nav1.5 IC50): 3.65 µM
CCCc1cc(C(F)(F)F)ccc1C1CCOc2cc(S(=O)(=O)Nc3cccnn3)ccc21 (stereo not shown) [Example-243] | 0.092 µM |  |  | IC50 ([2]; read-out: Nav1.5 IC50): 2.41 µM
CCCc1cc(C(F)(F)F)ccc1[C@@H]1CCOc2cc(S(=O)(=O)Nc3cccc(F)n3)ccc21 [Example-244, (S&R)—N-(6-fluoropyridin-2-yl)-4-(2-propyl-4-(trifluoromethyl)phenyl)chroman-7-sulfonamide] | 0.474 µM |  | 69% | 
CCCc1cc(C(F)(F)F)ccc1[C@H]1CCOc2cc(S(=O)(=O)Nc3cccc(F)n3)ccc21 [Example-245, (S&R)—N-(6-fluoropyridin-2-yl)-4-(2-propyl-4-(trifluoromethyl)phenyl)chroman-7-sulfonamide] | 0.041 µM |  | 75% | 
O=C(O)c1ccc(-c2cc(C(F)(F)F)ccc2[C@H]2CCOc3cc(S(=O)(=O)Nc4ncc(F)cn4)ccc32)cc1 [compound 190, (S&R)-2′-(7-(N-(5-fluoropyrimidin-2-yl)sulfamoyl)chroman-4-yl)-5′-(trifluoromethyl)-[1,1′-biphenyl]-4-carboxylic acid] | 0.257 µM | > 10 µM |  | 

Source: patent US10239869B2, “Sulfonamide compounds as voltage-gated sodium channel modulators” (LUPIN LIMITED, priority 2015, dated 2019)
